These results are taken from patent US20130338178A1, “SIRTUIN MODULATORS AS INHIBITORS OF CYTOMEGALOVIRUS” (THE TRUSTEES OF PRINCETON UNIVERSITY, priority 2011, published 2013).

One test addresses T1, sirtuin (Homo sapiens, UniProt Q8IXJ6).
T1 sequence (Q8IXJ6 2-389 limits assumed): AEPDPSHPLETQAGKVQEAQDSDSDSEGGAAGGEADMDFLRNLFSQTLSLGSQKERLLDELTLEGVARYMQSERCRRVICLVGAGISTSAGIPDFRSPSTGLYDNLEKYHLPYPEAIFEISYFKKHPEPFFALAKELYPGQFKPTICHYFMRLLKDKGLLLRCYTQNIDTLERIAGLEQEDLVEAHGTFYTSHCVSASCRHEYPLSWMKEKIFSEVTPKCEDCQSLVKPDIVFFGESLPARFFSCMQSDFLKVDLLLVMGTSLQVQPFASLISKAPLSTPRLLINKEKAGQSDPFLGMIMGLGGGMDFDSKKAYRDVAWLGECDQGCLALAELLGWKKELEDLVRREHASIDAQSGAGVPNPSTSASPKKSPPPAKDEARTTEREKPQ
As to conditions: cited from earlier work.

Test [1] has as its target T2, SIRT2 (Homo sapiens, UniProt Q8IXJ6).
T2 sequence (Q8IXJ6 1-389): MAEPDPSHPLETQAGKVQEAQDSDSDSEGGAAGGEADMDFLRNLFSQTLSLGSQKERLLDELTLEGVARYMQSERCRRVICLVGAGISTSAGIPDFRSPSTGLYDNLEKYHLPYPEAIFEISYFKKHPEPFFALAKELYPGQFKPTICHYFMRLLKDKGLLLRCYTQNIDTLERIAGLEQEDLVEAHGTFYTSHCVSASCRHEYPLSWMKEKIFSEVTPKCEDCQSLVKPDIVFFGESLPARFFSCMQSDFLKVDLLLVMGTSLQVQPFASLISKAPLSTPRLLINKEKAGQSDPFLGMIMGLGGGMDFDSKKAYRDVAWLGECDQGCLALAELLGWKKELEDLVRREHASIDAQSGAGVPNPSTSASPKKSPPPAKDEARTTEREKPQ
The following applies: cited from earlier work.

The target of the next test is Sirt6 (Homo sapiens, UniProt Q8N6T7). The following applies: cited from earlier work.
Sequence of Sirt6 (Q8N6T7 whole entry): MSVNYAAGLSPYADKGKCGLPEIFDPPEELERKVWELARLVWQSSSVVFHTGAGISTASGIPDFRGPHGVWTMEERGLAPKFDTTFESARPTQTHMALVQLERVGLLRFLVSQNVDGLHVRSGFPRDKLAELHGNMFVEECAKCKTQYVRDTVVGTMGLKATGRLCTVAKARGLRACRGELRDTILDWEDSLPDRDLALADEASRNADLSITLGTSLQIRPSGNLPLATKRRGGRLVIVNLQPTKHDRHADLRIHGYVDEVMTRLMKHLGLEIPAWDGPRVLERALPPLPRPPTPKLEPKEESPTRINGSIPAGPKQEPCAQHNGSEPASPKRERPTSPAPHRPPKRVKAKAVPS
Another test has as its target T3, Sirt5 (Homo sapiens, UniProt Q9NXA8).
T3 sequence (Q9NXA8 37-310): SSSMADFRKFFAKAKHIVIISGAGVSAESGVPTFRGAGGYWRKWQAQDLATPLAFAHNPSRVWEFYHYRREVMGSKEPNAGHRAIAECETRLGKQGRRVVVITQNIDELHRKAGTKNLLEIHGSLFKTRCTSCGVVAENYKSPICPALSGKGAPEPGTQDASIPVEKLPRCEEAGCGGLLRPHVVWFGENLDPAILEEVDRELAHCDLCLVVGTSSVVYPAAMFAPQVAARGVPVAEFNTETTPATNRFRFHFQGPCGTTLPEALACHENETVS
The following applies: cited from earlier work.

For test [2], the target named is T2, SIRT2. As to conditions: cited from earlier work; for Inhibition (at 60 μM ± SE (%)) SIRT2: n = 2.
Test [3] addresses T4, SIRT1 (Homo sapiens, UniProt Q96EB6).
T4 sequence (Q96EB6 1-747): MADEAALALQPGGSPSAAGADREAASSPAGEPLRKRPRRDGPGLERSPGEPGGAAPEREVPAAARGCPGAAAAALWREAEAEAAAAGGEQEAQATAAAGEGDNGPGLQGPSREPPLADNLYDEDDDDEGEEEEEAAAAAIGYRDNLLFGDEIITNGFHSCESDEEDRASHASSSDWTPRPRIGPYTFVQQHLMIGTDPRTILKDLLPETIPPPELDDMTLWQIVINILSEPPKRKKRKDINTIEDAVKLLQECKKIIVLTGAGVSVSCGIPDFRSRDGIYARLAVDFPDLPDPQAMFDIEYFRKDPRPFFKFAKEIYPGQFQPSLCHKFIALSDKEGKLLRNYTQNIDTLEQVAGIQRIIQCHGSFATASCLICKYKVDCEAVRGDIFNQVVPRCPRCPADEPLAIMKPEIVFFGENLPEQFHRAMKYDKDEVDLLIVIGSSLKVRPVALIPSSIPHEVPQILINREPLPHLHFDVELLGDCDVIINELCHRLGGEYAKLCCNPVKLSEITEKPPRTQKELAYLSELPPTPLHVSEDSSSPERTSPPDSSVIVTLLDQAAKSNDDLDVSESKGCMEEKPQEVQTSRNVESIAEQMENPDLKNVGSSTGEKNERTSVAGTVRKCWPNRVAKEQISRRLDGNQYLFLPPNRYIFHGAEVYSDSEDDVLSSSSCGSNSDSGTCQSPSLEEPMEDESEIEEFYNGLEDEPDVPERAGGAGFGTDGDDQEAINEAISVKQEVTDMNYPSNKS
As to conditions: n = 2; cited from earlier work.

For another test, the system named is HCMV pUL99. In words: Late viral pUL99 expression and cytopathic effect in HCMV infected MRC5 cells. The class given is cell-based, human cytomegalovirus. As to conditions: 10 μM; data not shown. (Protection from cytopathic effect is a common read-out in antiviral testing.)
For test [4], the target named is T4, SIRT1. As to conditions: cited from earlier work.
The target of another test is Hst2 (Saccharomyces cerevisiae, UniProt P53686). The following applies: cited from earlier work.
Sequence of Hst2 (P53686 whole entry): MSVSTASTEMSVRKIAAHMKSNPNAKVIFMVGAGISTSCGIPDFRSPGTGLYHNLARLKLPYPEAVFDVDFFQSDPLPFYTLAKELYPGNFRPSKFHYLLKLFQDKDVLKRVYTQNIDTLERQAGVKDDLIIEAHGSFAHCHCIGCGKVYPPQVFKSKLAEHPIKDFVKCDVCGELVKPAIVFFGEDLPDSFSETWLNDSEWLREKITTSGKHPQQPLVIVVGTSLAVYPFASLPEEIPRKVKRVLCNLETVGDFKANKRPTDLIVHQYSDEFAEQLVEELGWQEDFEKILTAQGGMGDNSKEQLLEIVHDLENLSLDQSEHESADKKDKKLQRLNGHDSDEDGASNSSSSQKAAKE
A further test deals with HCMV. In words: Yield of infectious HCMV from drug-treated infected MRC5 fibroblasts. The following applies: FIG. 5. The class given is cell-based, human cytomegalovirus.

In the case of `C(=Nc1ccc(N=Cc2ccccc2)cc1)c1ccccc1` [3a], the “inhibition at 200 μM ± SD, %” value at sirtuin is on record as 35 ± 1.4%.

On to `Oc1ccccc1C=Nc1ccc(N=Cc2ccccc2O)cc1` [3b], for which the “inhibition at 200 μM ± SD, %” value at sirtuin was 56 ± 8.2%.

Regarding `Oc1cccc(C=Nc2ccc(N=Cc3cccc(O)c3)cc2)c1` [3c], at sirtuin, the “inhibition at 200 μM ± SD, %” value is 12 ± 0.9%.

With `Oc1ccc(C=Nc2ccc(N=Cc3ccc(O)cc3)cc2)cc1` [3d], the “inhibition at 200 μM ± SD, %” value on sirtuin is recorded as 22 ± 1.6%.

`COc1ccccc1C=Nc1ccc(N=Cc2ccccc2OC)cc1` [3f]: the “inhibition at 200 μM ± SD, %” value at sirtuin is 13 ± 0.5%.

As for `COc1cccc(C=Nc2ccc(N=Cc3cccc(OC)c3)cc2)c1` [3g], at sirtuin, the “inhibition at 200 μM ± SD, %” value is on record as 20 ± 1.2%.

Regarding `c1ccc(CNc2ccc(NCc3ccccc3)cc2)cc1` [4a], at sirtuin, the “inhibition at 200 μM ± SD, %” value is 21 ± 1.7%.

`Oc1ccccc1CNc1ccc(NCc2ccccc2O)cc1` [4b]: on sirtuin, the “inhibition at 200 μM ± SD, %” value is 27 ± 2.4%.

Turning to `Oc1cccc(CNc2ccc(NCc3cccc(O)c3)cc2)c1` [4c], the “inhibition at 200 μM ± SD, %” value at sirtuin is listed as 8 ± 0.4%.

With `Oc1ccc(CNc2ccc(NCc3ccc(O)cc3)cc2)cc1` [4d], the “inhibition at 200 μM ± SD, %” value on sirtuin is recorded as 14 ± 0.5%.

As to `C(=C1c2ccccc2-c2ccccc21)c1ccc(N=C2c3ccccc3-c3ccccc32)cc1` [CSC2], the Sirt2 effect result on SIRT2 [1] is “inhibition”.

In the case of `Cc1cc(N2CCOCC2)nc2ccc(Cc3ccc4nc(N5CCOCC5)cc(C)c4c3)cc12` [CSC4], on SIRT2 [1], the Sirt2 effect result was “inhibition”.

As to `O=C1c2ccccc2C(=O)c2c(NCc3cc4c5c(ccc6c7ccc8c9c(cc(Nc%10cccc%11c%10C(=O)c%10ccccc%10C%11=O)c(c3c56)c97)-c3ccccc3C8=O)C(=O)c3ccccc3-4)cccc21` [CSC6], on Sirt6, the Sirt6 effect entry was “inhibition”. In addition, the Sirt2 effect result on SIRT2 [1] is “inhibition”.

Consider `C=C(C(C)c1ccc2c(c1)Cc1ccccc1-2)C(C)c1ccc2c(c1)Cc1ccccc1-2` (centres unmarked) [CSC7], for which the Sirt2 effect entry at SIRT2 [1] was “inhibition”.

Take `Cc1ccc2c(c1)CCC1C2CCC2(C)C(OC(=O)CCc3ccccc3)CCC12` (centres unmarked) [CSC8]: the Sirt2 effect result on SIRT2 [1] is “inhibition”.

As to `C/C(=C1/C=C(c2ccc3ccccc3c2)OC1=O)c1ccc(C(C)C)cc1` [CSC9], the Sirt5 effect result on Sirt5 is “activation^c”. In addition, on SIRT2 [1], the Sirt2 effect entry is listed as “inhibition”.

As to `CC12Cc3cnc(-c4ccccc4)nc3CC1CCC1C2CCC2(C)C1CCC2(C)O` (centres unmarked) [CSC13], the Sirt2 effect entry at SIRT2 [1] was “inhibition”.

Turning to `O=Cc1ccc2c(c1)C(=O)c1ccc3c4ccc5c6c(ccc(c7ccc-2c1c37)c64)-c1ccc(C(=O)O)cc1C5=O` [CSC14], the Sirt5 effect entry at Sirt5 is “inhibition”. The Sirt2 effect result on SIRT2 [1] is “inhibition”.

Take `[H]/N=C(\c1ccc2ccccc2c1)c1ccccc1Cc1ccccc1` [CSC22]: the Sirt2 effect entry at SIRT2 [1] is on record as “inhibition”.

Regarding `[H]/N=C(\c1cc(C)cc(C)c1)c1ccccc1Cc1cccc2ccccc12` [CSC23], the Sirt2 effect result at SIRT2 [1] is “inhibition”.

With `[H]/N=C(\c1ccccc1Cc1cccc2ccccc12)c1ccc(C)c2ccccc12` [CSC24], on SIRT2 [1], the Sirt2 effect result is recorded as “inhibition”.

Consider `O=C1OC2(c3ccc(O)cc3Oc3cc(O)ccc32)c2c1c(-c1ccccc1)c(-c1ccccc1)c(-c1ccccc1)c2-c1ccccc1` [CSC28], for which the Sirt6 effect result at Sirt6 is on record as “activation”. Besides, the Sirt2 effect result on SIRT2 [1] is “inhibition”.

As to `COc1ccc2c(c1)Cc1cc(/N=[N+](\[O-])c3ccc4c(c3)Cc3cc(OC)ccc3-4)ccc1-2` [CSC32], at SIRT2 [1], the Sirt2 effect entry is “inhibition”.

With `O=S1(=O)C(c2ccccc2)C(N2CCCCC2)C1C1CC2c3ccccc3C1c1ccccc12` (centres unmarked) [CSC33], on Sirt5, the Sirt5 effect entry is reported as “activation”. For the same compound, the Sirt6 effect result on Sirt6 is “activation”.

Take `O=C1C2C3c4ccccc4C(c4ccccc43)C2C(=O)N1c1ccc(OCc2ccccc2)cc1` (centres unmarked) [CSC34]: the Sirt6 effect result at Sirt6 is “activation”. Also, the Sirt2 effect result on SIRT2 [1] is “inhibition”.

Take `O=c1[nH]c(=S)[nH]c(-c2ccc(Br)cc2)c1Cc1c(O)ccc2ccccc12` [Compd 6b]: on SIRT2 [2] (determined for compounds with over 60% inhibition at 60 μM), the IC50 is more than 90 µM.

Turning to `O=c1[nH]c(=S)[nH]c(-c2ccc(Cl)cc2)c1Cc1c(O)ccc2ccccc12` [Compd 6iv], on SIRT2 [2], the “Inhibition (at 60 μM ± SE (%)) SIRT2” value was 20.1 ± 1%. In addition, the “Inhibition (at 60 μM ± SE (%)) SIRT1” value at SIRT1 [3] is recorded as 13.7 ± 1%.

`O=c1[nH]c(=S)[nH]c(-c2cccc(Cl)c2)c1Cc1c(O)ccc2ccccc12` [Compd 6ix]: the “Inhibition (at 60 μM ± SE (%)) SIRT2” value at SIRT2 [2] is 7.6 ± 6%. In addition, the “Inhibition (at 60 μM ± SE (%)) SIRT1” value on SIRT1 [3] was 11.3 ± 1%.

As to `O=c1[nH]c(=S)[nH]c(-c2ccc(I)cc2)c1Cc1c(O)ccc2ccccc12` [Compd 6v], at SIRT2 [2], the “Inhibition (at 60 μM ± SE (%)) SIRT2” value is on record as 7.7 ± 1%. In addition, the “Inhibition (at 60 μM ± SE (%)) SIRT1” value on SIRT1 [3] is listed as 7.7 ± 1%.

For `O=c1[nH]c(=S)[nH]c(-c2ccc(C(F)(F)F)cc2)c1Cc1c(O)ccc2ccccc12` [Compd 6vi], at SIRT2 [2], the “Inhibition (at 60 μM ± SE (%)) SIRT2” value is reported as 6.7 ± 1%. Further, on SIRT1 [3], the “Inhibition (at 60 μM ± SE (%)) SIRT1” value is 15.1 ± 1%.

Consider `O=c1[nH]c(=S)[nH]c(-c2ccccc2Br)c1Cc1c(O)ccc2ccccc12` [Compd 6vii], for which, on SIRT1 [3], the “Inhibition (at 60 μM ± SE (%)) SIRT1” value is reported as 19.7 ± 1%.

`O=c1[nH]c(=S)[nH]c(-c2cccc(Br)c2)c1Cc1c(O)ccc2ccccc12` [Compd 6viii]: the “Inhibition (at 60 μM ± SE (%)) SIRT2” value at SIRT2 [2] was 6.6 ± 3%. On SIRT1 [3], the “Inhibition (at 60 μM ± SE (%)) SIRT1” value was 4.8 ± 1%.

For `NC(=O)C1CCCc2c1[nH]c1ccc(Cl)cc21` (centres unmarked) [EX-527], the “accumulation of late viral pUL99 protein” value in the test on HCMV pUL99 is listed as “increased”.

On to `c1cnc2ocnc2c1` [Oxazolopyridine], for which, at SIRT1 [4], the “EC1.5: The concentration to activate 1.5-fold” value is 0.09 µM.

Turning to `c1cc2c(ccc3ncc[nH]c32)n1` [Pyrroloquinoxaline], the “activation at this concentration” value at SIRT1 [4] (10 μM) is “*233% activation at this concentration”. In addition, at SIRT1 [4], the “EC1.5: The concentration to activate 1.5-fold” value was 10 µM.

As for `COc1cc(C(=O)Nc2ccccc2-c2cn3c(CN4CCNCC4)csc3n2)cc(OC)c1OC` [SRT1460], at SIRT1 [4], the “EC1.5: The concentration to activate 1.5-fold” value was 2.9 µM.

`O=C(Nc1ccccc1-c1cn2c(CN3CCNCC3)csc2n1)c1cnc2ccccc2n1` [SRT1720]: on SIRT1 [4], the “EC1.5: The concentration to activate 1.5-fold” value is 0.16 µM.

Take `O=C1CCc2c(ccc3ccccc23)O1` [Splitomycin]: the IC50 on Hst2 is more than 600 µM.

As to `Cc1ccc(C(=O)Nc2ccc(S(=O)(=O)O)c3cc(S(=O)(=O)O)cc(S(=O)(=O)O)c23)cc1NC(=O)c1cccc(NC(=O)Nc2cccc(C(=O)Nc3cc(C(=O)Nc4ccc(S(=O)(=O)O)c5cc(S(=O)(=O)O)cc(S(=O)(=O)O)c45)ccc3C)c2)c1` [Suramin, suramin], the IC50 at Hst2 was 240 ± 70 µM.

Regarding `CN(C)CCCCC(=O)Nc1ccc(NC(=S)NC(=O)c2ccc(C(C)(C)C)cc2)cc1` [Tenovin 6], in the test on HCMV, the “production of infectious HCMV” value is “blocked”. The IC50 on Hst2 was more than 100 µM.

For orientation: inhibition means the percentage by which the read-out fell short of the control. Broadly, the IC50 is the concentration that gives 50% inhibition.
